From patent US9801843B2, “Self-emulsifying composition of ω3 fatty acid” (priority 2013, dated 2017)

Assay: Pharmacokinetics in beagles (Test Example 5)
Type: in vivo
Conditions: plasma EPA, male beagles fasted, oral, 600 mg EPA-E, baseline-corrected
Experimental: The composition of Example 14 was orally administered to 6 male beagles (at the age of 2 to 6 years with the body weight of 13 kg, 3 Marshall beagles and 3 Nosan beagles) under fasting conditions, and blood EPA concentration was evaluated. The test animals had been fasted since 18 hours or more before the administration, and each animal was administered with the composition in an amount corresponding to 600 mg of the EPA-E. Blood was collected before the administration, and 0.5, 1, 1.5, 2, 3, 4, 6, 8, and 24 hours after the administration, and plasma was separated to measure plasma EPA concentration by LC/MS/MS (method in which a sample is isolated by liquid chromatography, then subjected to mass spectrometry to conduct separation and measurement thereon). The control group was administered with the EPA-E stock solution encapsulated in a capsule. […] In the calculation of each parameter, correction was made by subtracting the blood EPA concentration before the administration from the measured blood concentration.

CC/C=C\C/C=C\C/C=C\C/C=C\C/C=C\CCCC(=O)OCC [EPA-E Stock solution, Ethyl eicosapentaenoate ester]
AUC0-2: 14.4 µg·h/mL
AUC0-24: 188 µg·h/mL
Cmax: 16600 ng/mL
